Assay results as given in US3962256A, “2-Aminomethyl benzimidazole derivatives” (Delalande S.A., priority 1973, dated 1976).

Legend:
[1] = Lethal doses / percentage mortality, oral; type: in vivo; conditions: 2 000 mg/Kg/p.o.; 2000 mg/kg
From the text: As a result of a comparison between the pharmacologically active doses mentioned above and the lethal doses listed in the following Table XII, the difference between said doses is sufficiently great to permit the utilisation of the compounds of formula (I) in therapeutics.

[2] = tested on: gastric ulcers, provoked in a rat by tying of the pylorus (Shay ulcers); experiment: Antiulcerous: reduction of Shay ulcers (tying of the pylorus); type: in vivo; conditions: 50 mg/Kg/i.d.
Description: The compounds of formula (I) administered by intraduodenal means reduce the extent of gastric ulcers, provoked in a rat by tying of the pylorus (Shay ulcers).
By way of example, there is listed in the following Table IX, the results obtained by the administrations of 50 mg/Kg/i.d. of different compounds of formula (I).

[3] = tested on: bronchoconstriction provoked in the guinea-pig by acetylcholine; experiment: Antibronchoconstrictive and anticholinergic: bronchoconstriction by intravenous acetylcholine, Konzett method; type: in vivo; conditions: 100 mg/kg/i.d.
From the text: Injected by intraveinous or intraduodenal means, the compounds of formula (I) are capable of opposing the bronchoconstriction provoked in the guinea-pig by the itraveinous injection of acetylcholine by the Konzett method.
By way of example, the following Table VII lists the results obtained by the administration of different compounds of formula (I)

volume of urine emitted = experiment: Diuretic: augmentation of urinary elimination; type: in vivo; conditions: 25 mg/Kg/p.o., mouse, 6 hours
Description: The compounds of formula (I), administered by oral means to the mouse, simultaneously with a volume of 1 ml. of an isotonic solution of sodium chloride per 25 g of the corporeal weight of the mouse, are capable of provoking an augmentation of the volume of urine emitted by reference to control animals, the volume being measured for 6 hours following administration.
By way of example, the following Table XI lists the results obtained by the administration of 25 mg/Kg/p.o. of different compounds of formula (I).

[4] = tested on: excursions into the escape enclosure; experiment: Central nervous system stimulation: excursions in the escape test; type: in vivo; conditions: 100 mg/Kg/p.o., mouse
Description: The compounds of formula (I), administered by oral means to the mouse, provoke an augmentation of the number of excursions into the escape enclosure.
Thus, following the administration of 100 mg/Kg/p.o. of the compounds of Code Nos. 72 457 and 72 736, an augmentation of 30% in the number of excursions in the escape test, is observed.

[5] = tested on: rat suffering from high blood pressure; experiment: Antihypertensive: return of systolic arterial pressure to normal in rats with high blood pressure; type: in vivo; conditions: 200 mg/Kg/p.o.
From the text: The compounds of formula (I), administered by oral means to a rat suffering from high blood pressure, are capable of lowering the systolic arteriel pressure.
By way of example, there is provided in the following Table IV the results obtained by administration of different compounds of formula (I).

[6] = tested on: isolated ileum of the guinea-pig; experiment: Antihistaminic: opposing histamine contraction of isolated ileum; conditions: promethazine as standard
Description: The compounds of formula I, introduced in the conserving medium, are capable of opposing the contractural action of histamine on the isolated ileum of the guinea-pig. This activity is evaluated by taking promethazine as standard.

[7] = tested on: oedema caused by the sub-plantar injection of carraghenin; experiment: Antiinflammatory: reduction of sub-plantar oedema caused by carraghenin, rat; type: in vivo; conditions: 100 mg/Kg/p.o.
Description: These properties are shown by a diminution of the local oedema caused by the sub-plantar injection of a phlogogenic agent, such as carraghenin, in the rat following the oral administration of compounds of formula (I).
The following Table VI lists, by way of example, the percentage reduction of the oedems caused by the sub-plantar injection of carraghenin, resulting from the administration of 100 mg/Kg/p.o. of different compounds of formula (I).

Cc1ccc(C(=O)CCn2c(CN(C)C)nc3ccccc32)cc1 [72 457]
Percentage mortality [1]: 0% | Percentage reduction of Shay ulcers [2]: 30% | Percentage inhibition of bronchoconstriction [3]: 80% | Percentage augmentation of urinary elimination (volume of urine emitted): 45% | augmentation in the number of excursions in the escape test [4]: 30% | Percentage of rats with high blood pressure whose systolic arteriel pressure is returned to normal [5]: 50%

O=C(CCn1c(CN2CCCC2)nc2ccccc21)c1ccc(Cl)cc1 [72 366]
Percentage mortality [1]: 0% | Percentage reduction of Shay ulcers [2]: 40% | antihistaminic activity relative to promethazine [6]: equivalent activity to that of promethazine | Percentage reduction of sub-plantar oedema [7]: 60%
